Entries after “also recorded” stand apart in the source; their conditions may differ.
Legend:
[1] = Social memory (olfactory recognition) in naive rats; type: in vivo, rat; details: 0.5, 1 and 5 mg/kg p.o., vs placebo, dose-dependent
Description: Animals were kept at 21° C.±1, with an inverse light-dark cycle (light on from 2:00 P.M. to 2:00 A.M.). The sessions were conducted 7 hr into the dark part of the light/dark cycle, under red illumination. […] The time spent by the adult rat in investigating the juvenile rat was recorded. […] Thus under the influence of a purported memory enhancing drug, the time spent in investigating the same juvenile is expected to be reduced. […] Any reduction in social exploration of this different juvenile is thus considered as reflecting a nonspecific effect of the drug (i.e., not memory related). On no occasion was a subject tested twice with the same juvenile stimulus animal, nor was a juvenile used more than once in a 48-hr period. […] Time spent in social investigation of stimulus juvenile rat was measured (in sec) and then expressed for each animal as the ratio of the second exposure to the first exposure (Ratio of Investigation Duration (RID)). […] Analysis for repeated measurement was made by a 3-way ANOVA and post hoc comparisons were made by simple main effects contrasts analysis.

[2] = tested on: rat pheochromocytoma cells transfected with M1 mAChR; assay: Neurite outgrowth in rat pheochromocytoma cells transfected with M1 mAChR; type: cell-based; details: 24 hrs, without neurotrophins
Description: For determination of neurite outgrowth, cells plated in six-well plates were used 3-5 days after plating. Growth factors were added 1 day after plating and muscarinic agonists were added for the last 24 hrs.
Cells were observed under an inverted microscope. The percent of cells with neurite longer than cell diameter were scored in three random fields of several hundred cells from each well. Results were expressed as a percent of cells with neurites. Treatments were performed in triplicate cells. Both NGF (50 ng/ml) and EGF (100 ng/ml) were added 1 day after plating. Muscarinic agonists were added 24 hours before scoring.

[3] = tested on: APPs secretion; assay: APPs secretion in rat primary hippocampal, cortical and spinal cord cultures; type: cell-based; details: 100 μM, 1 h
[4] = target: T1, human M1 receptor (Homo sapiens, UniProt P11229); assay: PI hydrolysis, human M1; type: cell-based
T1 construct: expressed in transfected cells
T1 sequence (P11229 1-460): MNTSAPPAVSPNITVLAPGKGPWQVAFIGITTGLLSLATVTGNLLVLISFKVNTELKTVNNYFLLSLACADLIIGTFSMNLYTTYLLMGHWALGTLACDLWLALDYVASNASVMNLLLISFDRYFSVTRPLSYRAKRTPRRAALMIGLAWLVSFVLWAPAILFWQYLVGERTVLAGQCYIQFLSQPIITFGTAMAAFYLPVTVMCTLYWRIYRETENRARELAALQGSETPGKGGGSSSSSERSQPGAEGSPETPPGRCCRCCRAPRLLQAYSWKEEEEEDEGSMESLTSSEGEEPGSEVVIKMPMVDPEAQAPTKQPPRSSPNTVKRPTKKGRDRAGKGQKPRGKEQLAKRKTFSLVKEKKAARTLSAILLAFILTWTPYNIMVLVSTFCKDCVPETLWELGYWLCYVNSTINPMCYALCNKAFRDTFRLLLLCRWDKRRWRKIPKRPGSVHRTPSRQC

[5] = tested on: tau; assay: Tau phosphorylation, AT8 immunoblot; type: cell-based; details: 100 μM; to the control level
Text: Following the experimental design of Sadot et al., J.Neurochem. […] By linking an M1 agonist to an antioxidant moiety tau phophorylation may be decreased, providing a new therapeutic strategy in a variety of CNS disease states due to combined damage due to oxidative stress and tau hyperphosphorylation.

[6] = Morris water maze in aged rats; type: in vivo, rat; details: for reversal learning: AF267B 1 mg/kg, AF292 1 and 0.5 mg/kg po
Text: Old (22-24 months old) and young (three months old) Sprague-Dawley rats had been tested in the MWM.

[7] = tested on: Aβ; assay: CSF and cortical Aβ in nbm-lesioned (hypocholinergic) rabbits; type: in vivo, rabbit; details: vs lesioned saline controls
Description: Twenty-eight female New Zealand White rabbits, about 2.5 kg each (young adults) were used. Twenty-one received lesions of the cholinergic nucleus basalis magnocellularis (nbm). The lesion was accomplished with unilateral i.c.v. injections of an immunotoxin consisting of the ribosomal toxin saporin conjugated to the monoclonal antibody MB20.4, which is directed against the low-affinity neurotophin receptor, p75. The ME20.4 antibody is made against monkey p 75 and also recognizes rabbit p75. The dose of immunotoxin was 32.4 μg in 12 μl; this was delivered to the right lateral ventricle 2 mm lateral to the bregma. Seven animals received i.c.v. injections of sterile normal saline (sham lesion). Animals which received the immunotoxin were divided into 3 groups of 7. […] Another group received physostigmine hemisalicylate in normal saline by s.c. osmotic pump at a daily dose of 3 mg/kg. The third group received twice-daily sterile saline s.c. injections. The animals which received a sham lesion were implanted with s.c. osmotic pumps filled with sterile normal saline. Animals were euthanized 4 weeks after surgery. […] Cerebrospinal fluid was taken from the cisterna magna of all animals at the time of sacrifice; the brain was removed and sliced coronally into 0.5 cm slices. […]

[8] = Plasma levels of AF267B and its metabolite AF292 in dogs given AF267B (single dose and 13 weeks); type: in vivo, Beagle dog
Text: Internal Standard (AF261): 2-Methyl-8-methyl-1-thia-4,8-diaza-spiro[4.5]decan-3-one; MW 200. The analytical plasma samples originate from the in-life part of this study.

[9] = CNS safety, general observation and Irwin test in rats; type: in vivo, rat
Description: AF292 was evaluated in rodents for possible effects on general behavior and other […] related pharmacological effects.

[10] = target: T2, human M5 receptor (Homo sapiens, UniProt P08912); assay: Arachidonic acid (AA) release, human M5; type: cell-based
T2 construct: expressed in transfected cells

[11] = Cardiac electrophysiology and haemodynamics in instrumented awake dogs; type: in vivo, Beagle dog; details: 5 mg/kg orally, 4 hours
Description: • 1. Astemizole (human ether-a-go-go related gene (HERG) Channel) Binding Assay. […] Isolated Guinea Pig Right Atrium (atrial fibrillation). […] Effects of AF292 (dose 5 mg/kg orally) on cardiac electrophysiological, cardio-haemodynamic in instrumented, awake dogs. Healthy trained and chronically instrumented female Beagle dogs of varying age and ranging in body weight from 9.4 to 12 kg, were used for recording of the cardiovascular parameters: heart rate, diastolic and systolic blood pressure, pressure rate product, LV dp/dt max, LV dp/dt max/pd, LV dp/dt min, cardiac output, stroke volume, systemic vascular resistance and the ECG parameters (PQ-, QRS-, QT-, QTcBazett—(QTcB), QTcFridericia—(QTcF) and QTcVan de Water—(QTcVdW) interval duration and QT-dispersion. During the last 18 hours prior to the experiments, the dogs had no access to food. Water was available ad libitum. At the beginning of each experiment, control values of the various parameters were recorded for at least 30 min. Thereafter, 5 mg/kg of AF292 (n=4) or the corresponding volume of the solvent (n=4) was administered orally by gavage. The various haemodynamic parameters were recorded continuously for 4 hours thereafter.

[12] = tested on: Human α-glycoprotein (AGP); assay: Protein binding, human α-glycoprotein; type: in vitro ADME; details: 10 μM
Description: Protein binding studies were carried out in human plasma, α1-glycoprotein, human serum […] (HSA), and Dulbecco's Phosphate Buffered Saline (PBS). AF292 was added to a final concentration of 10 μM. […] (μM) and in human α-glycoprotein (AGP), (see Table 1).

[13] = dogs, after 13 weeks daily AF267B 1.5, 3, 6 mg/kg po
[14] = female dogs, 13 weeks AF267B 1.5, 3, 6 mg/kg p.o.
[15] = female dogs, single dose (1×) of AF267B 1.5, 3, 6 mg/kg p.o.
[16] = male dogs, 13 weeks AF267B 1.5, 3, 6 mg/kg p.o.
[17] = male dogs, single dose (1×) of AF267B 1.5, 3, 6 mg/kg p.o.

T2 sequence (P08912 whole entry): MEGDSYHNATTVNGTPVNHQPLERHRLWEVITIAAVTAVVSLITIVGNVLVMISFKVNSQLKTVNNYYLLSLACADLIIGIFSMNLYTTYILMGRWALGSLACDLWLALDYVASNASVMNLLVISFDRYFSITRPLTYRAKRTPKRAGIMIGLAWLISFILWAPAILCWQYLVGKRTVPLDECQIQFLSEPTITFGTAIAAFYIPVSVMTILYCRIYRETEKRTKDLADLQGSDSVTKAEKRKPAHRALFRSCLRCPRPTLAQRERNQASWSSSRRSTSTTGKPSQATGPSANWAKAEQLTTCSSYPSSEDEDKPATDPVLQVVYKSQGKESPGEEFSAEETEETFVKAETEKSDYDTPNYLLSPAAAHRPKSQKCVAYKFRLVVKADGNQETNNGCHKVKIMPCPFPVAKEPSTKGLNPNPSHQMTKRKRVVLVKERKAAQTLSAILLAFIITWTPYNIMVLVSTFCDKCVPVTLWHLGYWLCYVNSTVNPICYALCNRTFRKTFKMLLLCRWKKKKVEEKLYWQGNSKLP

Compound	investigation time of the same juvenile (RID) [1]	Maximal neurite outgrowth response (percent of cells with neurites) [2]	APPs secretion, fold over control [3]	PI turnover vs. CCh (as 100%) [4]	phosphorylated tau (AT8) [5]	reversal learning [6]	AUC(0-t) [8, 13]	Cmax [8, 13]	plasma half life [8, 13]	MRT (area) ([8]; female dogs, 13 weeks)	AUC(0-inf) [8, 14]	MRT (area) ([8]; female dogs, single dose (1×))	AUC(0-inf) [8, 15]	MRT (area) ([8]; male dogs, 13 weeks)	AUC(0-inf) [8, 16]	MRT (area) ([8]; male dogs, single dose (1×))	AUC(0-inf) [8, 17]	further results
CC1=NCC2(CCN(C)CC2)S1 [AF150(S), 2,8-Dimethyl-1-thia-3,8-diaza-spiro[4.5]dec-2-ene]	decreased the investigation time	30%	2.8 fold															
CC[C@@H]1SC2(CCN(C)CC2)NC1=O [AF267B, (S)-2-ethyl-8-methyl-1-thia-4,8-diaza-spiro[4.5]decan-3-one]	decreased the investigation time	60%	2.8 fold	~66%	induce dephosphorylation of tau proteins	improved significantly the reversal learning	712 to 3947 ng·h/mL	162 to 1352 ng/mL	1 to 2 h	3.6 to 5.2 h	1033 to 4164 ng·h/mL	4.7 to 5.3 h	985 to 3179 ng·h/mL	3.0 to 4.2 h	1041 to 4471 ng·h/mL	3.8 to 5 h	800 to 3691 ng·h/mL	swimming ability [6]: no significant effect on the swimming ability; learning ([6]; 1 mg/kg): tendency for improvement; CSF sAPPα bands [7]: no significant difference; CSF Aβ (4 kDa band) ([7]; p=0.05): noticeable decrease; Tmax [8, 13]: 1.5 to 3 h; IRWIN TEST, duration of signs ([9]; rat, 100 mg/kg, p.o.): duration 3-6 hrs.).; IRWIN TEST, onset of signs ([9]; rat, 100 mg/kg, p.o.): reduced startle response (onset: 0.5 hr;; IRWIN TEST, signs (carriage, apathy, corneal reflex, diarrhea, grooming, urination, salivation, lacrimation, locomotor activity, respiration, startle) ([9]; rat, 100 mg/kg, p.o.): 100 mg/kg: abnormalities of carriage,; IRWIN TEST ([9]; rat, 1 & 10 mg/kg, p.o.): 1 & 10 no effect on gross behavior; General Observation: Chromodacryorrhea, dose ([9]; rat, p.o.): Chromodacryorrhea: 100 mg/kg, p.o.; General Observation: Convulsion, dose ([9]; rat, p.o.): Convulsion: 50 mg/kg, p.o.; General Observation: Gnawing, dose ([9]; rat, p.o.): Gnawing; 50 mg/kg, p.o.; General Observation: Hypothermia, dose ([9]; rat, p.o.): Hypothermia: 50 mg/kg, p.o.; General Observation: Lacrimation, dose ([9]; rat, p.o.): Lacrimation: 50 mg/kg, p.o.; General Observation: Mydriasis, dose ([9]; rat, p.o.): Mydriasis: 25 mg/kg, p.o.; General Observation: Salivation, dose ([9]; rat, p.o.): Salivation: 40 mg/kg, p.o.; General Observation: Sedation, dose ([9]; rat, p.o.): Sedation: 100 mg/kg, p.o.; dose at which effects begin (salivation and lacrimation) ([9]; rats, po, first hour): about 40 mg/kg
CC[C@@H]1SC2(CCNCC2)NC1=O [AF292, (S)-2-Ethyl-1-thia-4,8-diaza-spiro[4.5]decan-3-one]				~35%	induce dephosphorylation of tau proteins	did not reach significance	616 to 2451 ng·h/mL	136 to 555 ng/mL	9 to 20 h	5.1 to 33.7 h	F(13 w): 1866-12723; M(13 w): ng * h/ml	8.7 to 18.7 h	F (1×): outlier, 3901-4840; M (1×): ng * h/ml	5 to 7.8 h	1609 to 4170 ng·h/mL	5 to 27.3 h	1142 to 10932 ng·h/mL	AA release, agonist activity [10]: inactive as an agonist; also recorded: PI, AA: M5 mAChR - no effect as agonist; probe trial, spatial bias ([6]; both doses (1 and 0.5 mg/kg po)): tendency for partial spatial bias; hemodynamic or ECG parameters [11]: no statistically significant and relevant effect; Cmax vs. the Cmax of AF267B ([8]; dogs): 50-90%; T1/2 in plasma, times longer than AF267B ([8]; dogs): 3-5 times; Elimination half life, Mean T½ (M) ([8]; male dogs): Mean T½ (M) = 6.34 +/− 5.9; h; physical or behavioral signs ([9]; rats, 1, 10, 30, 60, or 100 mg/kg orally): No significant physical or behavioral signs; Protein Binding [12]: Human α-glycoprotein (AGP) = 0%

From patent US7439251B2, “Methods and compositions for treatment of central and peripheral nervous system disorders and novel compounds useful therefor” (Israel Institute for Biological Research, priority 2002, dated 2008)
